Experimental data reported in patent publication US11753410B2, “Hormone receptor modulators for treating metabolic mutagenic and fibrotic conditions and disorders” (priority 2017, dated 2023).

Columns and labels:
[1] = target: T1, ligand binding domain of human FXR (Homo sapiens, UniProt Q96RI1); test: biochemical; settings: for Emax: extent of activation relative to GW4064, read-out: Ligand Binding % Efficacy; for EC50: −log EC50, concentration required to produce 50% activation, FRET 520 nm/495 nm, 1 hour at room temperature, read-out: Ligand Binding pEC50 (converted)
T1 construct: purchased Thermofisher (LanthaScreen) PV4833
T1 sequence (Q96RI1 262-486 limits assumed): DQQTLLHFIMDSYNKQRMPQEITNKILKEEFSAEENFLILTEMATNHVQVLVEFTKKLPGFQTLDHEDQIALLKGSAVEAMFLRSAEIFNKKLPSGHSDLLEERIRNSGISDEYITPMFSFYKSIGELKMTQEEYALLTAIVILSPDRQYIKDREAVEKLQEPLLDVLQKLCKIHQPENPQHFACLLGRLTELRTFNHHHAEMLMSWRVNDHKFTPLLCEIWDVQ

[2] = target: T2, human Farnesoid X receptor ligand-binding domain/Gal4 DNA binding domain chimera (Homo sapiens, UniProt Q96RI1); test: Cell-based assay of FXR activation (FXR-UAS-bla HEK 293T beta-lactamase reporter); settings: for Emax: HEK-293T, read-out: Cellular % Efficacy
T2 construct: host or cells: FXR-UAS-bla HEK 293T (CellSensor UAS-bla HEK 293T)
T2 sequence (Q96RI1 262-486 limits assumed): T1 sequence (Q96RI1 262-486 limits assumed)
Protocol: FXR activation was measured using a cell line and procedure obtained from Life Technologies (Cat #K1691). […] Activation of FXR by bound ligands results in transcriptional activation of the beta-lactamase reporter gene, which is detected via assay of beta-lactamase activity.
Cells are harvested and diluted into assay medium containing phenol red-free DMEM supplemented with 2% Charcoal-stripped FBS, pyruvate, non-essential amino acids. Cells are then transferred to a 384 well assay plate. Test compounds are dissolved in DMSO and a 3-fold serial dilution series is generated, then further diluted into assay medium. Compounds in assay medium are added to cells in the 384 well plate and allowed to incubate 16 h at 37 C in the presence of 5% CO2.
A FRET-based […] (CCF4) is loaded into cells as its acetomethoxy ester. Intracellular esterases liberate free CCF4, a cephalosporin core linking 7-hydroxycoumarin to fluorescein. In the presence of beta-lactamase activity produced in the presence of FXR agonists, cleavage of CCF4 spatially separates the two dyes and disrupts FRET, so that exciting the coumarin at 409 nm now produces a blue fluorescence signal at 447 nm. The change in FRET signal is plotted against the test compound concentration and fit to a 3-parameter logistical equation.

Row | SMILES | Emax [1] | EC50 [1] | EC50 [2] | Emax [2]
1 | O=C(O)c1ccc(N2C[C@@H]3C[C@H]2C[C@H]3OCc2c(-c3c(Cl)cccc3Cl)cnn2C2CC2)cc1F [Compound I-42, 4-[(1S,4S,5R)-5-{[1-cyclopropyl-4-(2,6-dichlorophenyl)-1H-pyrazol-5-yl]methoxy}-2-azabicyclo[2.2.1]heptan-2-yl]-2-fluorobenzoic acid] | 102% | 251 nM | 398 nM | 110%
2 | O=C(O)c1ccc(N2C[C@@H]3C[C@H]2C[C@H]3OCc2c(C3CC3)cnn2-c2c(Cl)cccc2Cl)cc1 [Compound I-1, 4-[(1S,4S,5R)-5-{[4-cyclopropyl-1-(2,6-dichlorophenyl)-1H-pyrazol-5-yl]methoxy}-2-azabicyclo[2.2.1]heptan-2-yl]benzoic acid] | 121% | 6.31 nM | 1.58 nM | 110%
